In data set [1] the target is T1, HYPE (Homo sapiens, UniProt Q9BVA6, E234G).
T1 construct: gene FICD; 172–434
T1 sequence (Q9BVA6 172-434 E234G): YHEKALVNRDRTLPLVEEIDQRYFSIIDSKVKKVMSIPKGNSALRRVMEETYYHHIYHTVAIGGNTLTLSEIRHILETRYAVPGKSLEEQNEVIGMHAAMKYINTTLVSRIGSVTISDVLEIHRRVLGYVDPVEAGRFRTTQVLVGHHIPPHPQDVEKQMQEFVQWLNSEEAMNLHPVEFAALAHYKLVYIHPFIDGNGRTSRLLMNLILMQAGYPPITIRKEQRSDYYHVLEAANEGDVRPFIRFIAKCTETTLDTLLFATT
In words: differential scanning fluorimetry (thermal shift), […] ligand. The class given is binding. Background: DSF heats the sample and reads unfolding from a dye or from intrinsic fluorescence.

In data set [2] the target is T2, HYPE (Homo sapiens, UniProt Q9BVA6).
T2 construct: gene FICD; residues 103-445
T2 sequence (Q9BVA6 103-445): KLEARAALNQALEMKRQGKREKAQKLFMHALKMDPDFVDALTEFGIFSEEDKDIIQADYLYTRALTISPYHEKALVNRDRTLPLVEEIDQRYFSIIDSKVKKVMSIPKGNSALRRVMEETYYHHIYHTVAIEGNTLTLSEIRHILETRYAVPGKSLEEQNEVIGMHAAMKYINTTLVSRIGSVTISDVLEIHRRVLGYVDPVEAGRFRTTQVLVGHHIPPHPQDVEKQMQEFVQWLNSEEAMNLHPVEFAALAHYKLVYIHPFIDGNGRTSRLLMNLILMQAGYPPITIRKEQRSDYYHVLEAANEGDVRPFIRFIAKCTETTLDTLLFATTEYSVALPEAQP
In words: ITC; crystal structure; thermal shift. It counts as binding.

In data set [3] the target is T3, HYPE (Homo sapiens, UniProt Q9BVA6, E234G).
T3 sequence (Q9BVA6 103-445 E234G): T2 sequence (Q9BVA6 103-445) with E132G
Put plainly: ITC; crystal structure; thermal shift. Also noted: gene FICD; residues 103-445. It counts as binding. (ITC needs no label: the signal is the heat of the interaction.)

Data set [4] has as its target T3, HYPE. Put plainly: crystal structure ([…] Å); thermal shift. The class given is binding. On the set-up: gene FICD; TPR-motifs, linker and FIC domain (lacking first 102 residues).
The target of data set [5] is wild-type HYPE construct lacking the first 102 amino-acid residues (construct used for crystallization) (human) (UniProt Q9BVA6). Put plainly: SAXS; small angle X-ray scattering of soluble HYPE constructs in solution; methods in Supplemental Experimental Procedures.
Data set [6] deals with the molecule itself. Put plainly: SEC; analytical gel filtration of purified HYPE constructs. (In general: In gel filtration, larger molecules generally elute earlier.)

Numbering of substitutions follows the chain as printed.

In the case of `O=c1ccn([C@@H]2O[C@H](CO[P@@](=O)(O)O[P@@](=O)(O)OP(=O)(O)O)[C@@H](O)[C@H]2O)c(=O)[nH]1` (stereo in doubt) [uridine triphosphate], the “differential scanning fluorimetry (thermal shift), 200 μM ligand” value at HYPE [1] is “a less strong binding of cytidine triphosphate and uridine triphosphate (Figure 6A)”.

`Nc1ncnc2c1ncn2[C@@H]1O[C@H](COP(=O)(O)OP(=O)(O)O)[C@@H](O)[C@H]1O` [ADP]: the Kd amounted to 1500 nM on HYPE [2] and 160 nM on HYPE [3].

Take `Nc1ncnc2c1ncn2C1OC(COP(=O)(O)OP(=O)(O)OP(=O)(O)O)C(O)C1O` (centres unmarked) [ATP]: on HYPE [4], the “crystal structure (2.7 Å); thermal shift” value is listed as “we have also obtained structures with the ATP cofactor bound to an E234G variant”.

With `Nc1nc2c(ncn2[C@@H]2O[C@H](COP(=O)(O)OP(=O)(O)OP(=O)(O)O)[C@@H](O)[C@H]2O)c(=O)[nH]1` [guanosine-5'-triphosphate], the “differential scanning fluorimetry (thermal shift), 200 μM ligand” value at HYPE [1] was “showed similar binding of ATP and guanosine-5'-triphosphate”.

The molecule “wild-type HYPE construct lacking the first 102 amino-acid residues (construct used for crystallization) (from UniProt Q9BVA6 103-458) (domain or fragment)” registered a stoichiometry N in data set [5] of 2.

B1: HYPE (172–445), containing the linker helix and FIC domain (domain or fragment, human, UniProt Q9BVA6 172-445, looked up)
chain: YHEKALVNRDRTLPLVEEIDQRYFSIIDSKVKKVMSIPKGNSALRRVMEETYYHHIYHTVAIEGNTLTLSEIRHILETRYAVPGKSLEEQNEVIGMHAAMKYINTTLVSRIGSVTISDVLEIHRRVLGYVDPVEAGRFRTTQVLVGHHIPPHPQDVEKQMQEFVQWLNSEEAMNLHPVEFAALAHYKLVYIHPFIDGNGRTSRLLMNLILMQAGYPPITIRKEQRSDYYHVLEAANEGDVRPFIRFIAKCTETTLDTLLFATTEYSVALPEAQP
notes: human HYPE (FICD), residues 172-445: linker helix and FIC domain; cloned into pOPINS; also called ΔTPR; HYPE lacking TPR-motifs; source: E. coli C41(DE3), purified (Ni2+ chelating, Q-sepharose, gel filtration)
For the molecule B1, the binding result in data set [6] is recorded as “binds”.

B2: HYPE variant (103–434), containing TPR-motifs, linker, and FIC domain (domain or fragment, human, UniProt Q9BVA6 103-434, looked up)
chain: KLEARAALNQALEMKRQGKREKAQKLFMHALKMDPDFVDALTEFGIFSEEDKDIIQADYLYTRALTISPYHEKALVNRDRTLPLVEEIDQRYFSIIDSKVKKVMSIPKGNSALRRVMEETYYHHIYHTVAIEGNTLTLSEIRHILETRYAVPGKSLEEQNEVIGMHAAMKYINTTLVSRIGSVTISDVLEIHRRVLGYVDPVEAGRFRTTQVLVGHHIPPHPQDVEKQMQEFVQWLNSEEAMNLHPVEFAALAHYKLVYIHPFIDGNGRTSRLLMNLILMQAGYPPITIRKEQRSDYYHVLEAANEGDVRPFIRFIAKCTETTLDTLLFATT
notes: human HYPE (FICD), residues 103-434: TPR-motifs (105-135, 140-170), linker (170-215), FIC domain (215-432); cloned into pOPINS; wild type; also called HYPE (103-434); source: E. coli C41(DE3), purified (Ni2+ chelating, Q-sepharose, gel filtration)
Regarding B2, the “stoichiometry N” value in data set [6] is 2.

For orientation: Kd means a measure of binding affinity in units of concentration. As usually defined, the stoichiometry N is the number of molecules, sites or subunits per partner or assembly.

The record behind these values is PMC4342408 (Structure(London, England:1993), 2014).
